Read-outs that look alike come from different tables or passages of the source.
Assays:
[1] = target: T1, β-Glucuronidase from E. coli (Escherichia coli, UniProt P05804); experiment: β-Glucuronidase inhibitory activity assay with PNPG substrate; settings: for Inhibition of Compounds on β-glucuronidase, Inhibition at 100 μM (%): compound at 100 μM; for inhibition at 100 µM: read-out: Inhibition of Compounds on β-glucuronidase, Inhibition at 100 μM (%)
[2] = target: T1, β-Glucuronidase from E. coli; experiment: Inhibition kinetic analysis with β-glucuronidase (Lineweaver–Burk and Dixon plots); assay type: biochemical; settings: for Ki: determined by Dixon plots; for Inhibition Type: determined by Lineweaver–Burk plots
Description: To identify the inhibition mode of the active compounds on β-glucuronidase, two enzyme kinetic methodologies, the Lineweaver-Burk and Dixon methods, were used. The mode of β-glucuronidase inhibition was determined using a Lineweaver–Burk plot (or double reciprocal plot) at various concentrations of the substrate in the absence or presence of the test compound (concentrations: 0, 10, 20, 40, 60, and 80 µM for 13 and 15; 0, 7.5, 15, 30, 60, and 80 µM for 14; 0, 5, 10, 20, 40, and 60 µM for 26 and 27; and 0, 2.5, 5, 10, 20, and 40 µM for 28). The enzymatic reactions at various concentrations of the test compounds were evaluated by monitoring the effects of different substrate concentrations using Dixon plots (or single reciprocal plots) (0.25, 0.5, 1, and 2.5 mM). Ki values were determined by analyzing the Dixon plot, where the x-axis value was taken as Ki.

[3] = test system: B16F10 murine melanoma cells; design: method as in doi:10.1016/j.phytol.2017.05.022; settings: read-out: inhibition of melanin production IC50; cited from earlier work
[4] = test system: neuraminidase of influenza virus H5N1; settings: read-out: inhibitory effect on neuraminidase IC50; cited from earlier work
[5] = test system: PTP1B enzyme; design: method as in PMID 34416263; settings: in words; cited from earlier work
[6] = PNPG substrate, mean ± SEM of three independent experiments
[7] = read-out: Inhibition of Compounds on β-glucuronidase, IC50, PNPG substrate, mean ± SEM of three independent experiments

T1 sequence (P05804 whole entry): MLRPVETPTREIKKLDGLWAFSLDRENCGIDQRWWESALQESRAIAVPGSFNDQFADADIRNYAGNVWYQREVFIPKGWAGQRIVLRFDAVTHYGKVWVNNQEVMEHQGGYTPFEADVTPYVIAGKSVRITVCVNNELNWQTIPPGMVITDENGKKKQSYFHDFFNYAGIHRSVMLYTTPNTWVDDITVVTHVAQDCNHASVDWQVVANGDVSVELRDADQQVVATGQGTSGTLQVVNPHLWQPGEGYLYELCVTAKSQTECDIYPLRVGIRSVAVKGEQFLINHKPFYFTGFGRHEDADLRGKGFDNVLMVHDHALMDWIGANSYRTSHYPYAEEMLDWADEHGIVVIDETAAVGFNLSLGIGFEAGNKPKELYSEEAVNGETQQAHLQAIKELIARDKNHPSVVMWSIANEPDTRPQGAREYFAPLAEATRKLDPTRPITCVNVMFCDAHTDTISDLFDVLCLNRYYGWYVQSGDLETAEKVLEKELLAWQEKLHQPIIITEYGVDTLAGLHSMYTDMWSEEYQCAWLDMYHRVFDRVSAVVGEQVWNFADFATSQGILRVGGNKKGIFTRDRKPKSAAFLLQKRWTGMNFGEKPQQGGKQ

Compound: 1-(2,4,6-trihydroxy-3-methylphenyl)propanone [Compound 7]
- Inhibition of Compounds on β-glucuronidase, Inhibition at 100 μM (%) [1, 6]: 26.7 ± 1.5%
- IC50 [1, 7]: > 100 µM

Compound: 1-(2, 4, 6-trihydroxy-3-methylphenyl) butanone [Compound 8]
- Inhibition of Compounds on β-glucuronidase, Inhibition at 100 μM (%) [1, 6]: 24.9 ± 5.5%
- IC50 [1, 7]: > 100 µM

Compound: CC(=O)c1c(O)cc(O)cc1O [Compound 1, 2,4,6-trihydroxy-acetophenone]
- IC50 [1]: > 100 µM
- inhibition at 100 µM [1]: 11.6 ± 3.9%

Compound: CCC(=O)c1c(O)cc(O)cc1O [Compound 2, 1-(2,4,6-trihydroxy-phenyl)-propan-1-one]
- IC50 [1]: > 100 µM
- inhibition at 100 µM [1]: 24.4 ± 0.2%

Compound: CCCC(=O)c1c(O)cc(O)cc1O [Compound 3, phlorobutyrophenone]
- IC50 [1]: > 100 µM
- inhibition at 100 µM [1]: 22 ± 2.1%

Compound: CC(=O)c1c(O)cc(O)c(C(C)=O)c1O [Compound 4, 5-acetyl-2,4,6-trihydroxyacetophenone]
- IC50 [1]: > 100 µM
- inhibition at 100 µM [1]: 22.1 ± 2.4%

Compound: CCC(=O)c1c(O)cc(O)c(C(=O)CC)c1O [Compound 5, 1,3-(2,4,6-trihydroxyphenyl)dipropanone]
- IC50 [1]: > 100 µM
- inhibition at 100 µM [1]: 27.1 ± 0.4%

Compound: CCCC(=O)c1c(O)cc(O)c(C(=O)CCC)c1O [Compound 6, 1,3-(2,4,6-trihydroxyphenyl)dibutanone]
- IC50 [1]: > 100 µM
- inhibition at 100 µM [1]: 33.7 ± 2.3%

Compound: CCC(=O)c1c(O)c(C(=O)CC)c(O)c(C(=O)CC)c1O [Compound 10, tripropionylphloroglucinol]
- IC50 [1]: > 100 µM
- inhibition at 100 µM [1]: 41.4 ± 1.7%

Compound: CCCC(=O)c1c(O)c(C(=O)CCC)c(O)c(C(=O)CCC)c1O [Compound 11, tributyrylphloroglucinol]
- IC50 [1]: 43 ± 2.9 µM
- inhibition at 100 µM [1]: 87.3 ± 3.4%

Compound: CCCC(=O)c1c(O)cc(O)c(-c2c(O)cc(O)c(C(=O)CCC)c2O)c1O [Compound 12, bis-phlorobutyrophenone]
- IC50 [1]: > 100 µM
- inhibition at 100 µM [1]: 34.1 ± 0.5%

Compound: CCCC(=O)c1c(O)cc(O)c(Cc2c(O)cc(O)c(C(=O)CC)c2O)c1O [Compound 13, dryopidin PB]
- Ki [2]: 6.3 µM
- Inhibition Type [2]: Competitive
- IC50 [1]: 18.1 ± 1.5 µM
- inhibition at 100 µM [1]: 93.7 ± 0.3%

Compound: CCCC(=O)c1c(O)cc(O)c(Cc2c(O)cc(O)c(C(=O)CCC)c2O)c1O [Compound 14, methylene-bis-phlorobutyrophenone]
- Ki [2]: 4.3 µM
- Inhibition Type [2]: Competitive
- IC50 [1]: 14.4 ± 0.6 µM
- inhibition at 100 µM [1]: 97.1 ± 0.7%

Compound: CCCC(=O)c1c(O)cc(O)c(Cc2c(O)c(C)c(O)c(C(=O)CCC)c2O)c1O [Compound 15, araspidin BB]
- Ki [2]: 25.8 µM
- Inhibition Type [2]: Competitive
- IC50 [1]: 17 ± 2.5 µM
- inhibition at 100 µM [1]: 89.1 ± 0.3%

Compound: CCC(=O)c1c(O)cc(O)c(CC2=C(O)C(C)(C)C(O)=C(C(C)=O)C2=O)c1O [Compound 16, norflavaspidic acid AP]
- IC50 [1]: 64.4 ± 3.5 µM
- inhibition at 100 µM [1]: 68.3 ± 0.2%

Compound: CCCC(=O)c1c(O)cc(O)c(CC2=C(O)C(C)(C)C(O)=C(C(C)=O)C2=O)c1O [Compound 17, norflavaspidic acid AB]
- IC50 [1]: 67 ± 1.3 µM
- inhibition at 100 µM [1]: 65.1 ± 0.1%

Compound: CCCC(=O)c1c(O)cc(O)c(CC2=C(O)C(C)(C)C(O)=C(C(=O)CC)C2=O)c1O [Compound 18, norflavaspidic acid PB]
- IC50 [1]: > 100 µM
- inhibition at 100 µM [1]: 42.2 ± 0.1%
- IC50 [3]: 35.7 µM

Compound: CCCC(=O)C1=C(O)C(C)(C)C(O)=C(Cc2c(O)cc(O)c(C(=O)CCC)c2O)C1=O [Compound 19, norflavaspidic acid BB]
- IC50 [1]: > 100 µM
- inhibition at 100 µM [1]: 41 ± 1.4%

Compound: CC(=O)C1=C(O)C(C)(C)C(O)=C(Cc2c(O)c(C)c(O)c(C(C)=O)c2O)C1=O [Compound 20, flavaspidic acid AA]
- IC50 [1]: 75.7 ± 1.2 µM
- inhibition at 100 µM [1]: 76.1 ± 3.4%

Compound: CCC(=O)c1c(O)c(C)c(O)c(CC2=C(O)C(C)(C)C(O)=C(C(C)=O)C2=O)c1O [Compound 21, flavaspidic acid AP]
- IC50 [1]: > 100 µM
- inhibition at 100 µM [1]: 47.9 ± 4.7%

Compound: CCCC(=O)c1c(O)c(C)c(O)c(CC2=C(O)C(C)(C)C(O)=C(C(C)=O)C2=O)c1O [Compound 22, flavaspidic acid AB]
- IC50 [1]: > 100 µM
- inhibition at 100 µM [1]: 48.7 ± 4.8%

Compound: CCCC(=O)c1c(O)c(C)c(O)c(CC2=C(O)C(C)(C)C(O)=C(C(=O)CC)C2=O)c1O [Compound 23, flavaspidic acid PB]
- IC50 [1]: 76.5 ± 1.5 µM
- inhibition at 100 µM [1]: 73.5 ± 0.7%
- IC50 [3]: 38.9 µM

Compound: CCCC(=O)c1c(O)c(CC2=C(O)C(C)(C)C(O)=C(C(C)=O)C2=O)c(O)c(C2CCCN2C(=N)N)c1O (centres unmarked) [Compound 25, dryopcrassirine AB]
- IC50 [1]: > 100 µM
- inhibition at 100 µM [1]: 30.7 ± 1.7%

Compound: CCCC(=O)c1c(O)cc(O)c(Cc2c(O)c(CC3=C(O)C(C)(C)C(O)=C(C(C)=O)C3=O)c(O)c(C(=O)CCC)c2O)c1O [Compound 26, nortrisflavaspidic acid ABB]
- IC50 [4]: 51.5 µM
- Ki [2]: 7.5 µM
- Inhibition Type [2]: Competitive
- IC50 [1]: 8 ± 1.8 µM
- inhibition at 100 µM [1]: 98.1 ± 2.5%
- activity toward the PTP1B enzyme [5]: significant activity

Compound: CCCC(=O)c1c(O)c(C)c(O)c(Cc2c(O)c(CC3=C(O)C(C)(C)C(O)=C(C(C)=O)C3=O)c(O)c(C(=O)CCC)c2O)c1O [Compound 27, trisflavaspidic acid ABB]
- Ki [2]: 0.5 µM
- Inhibition Type [2]: Competitive
- IC50 [1]: 7.1 ± 2.6 µM
- inhibition at 100 µM [1]: 101.2 ± 0.6%
- activity toward the PTP1B enzyme [5]: significant activity

Compound: CCCC(=O)C1=C(O)C(C)(C)C(O)=C(Cc2c(O)c(Cc3c(O)c(C)c(O)c(C(=O)CCC)c3O)c(O)c(C(=O)CCC)c2O)C1=O [Compound 28, trisflavaspidic acid BBB]
- Ki [2]: 2.8 µM
- Inhibition Type [2]: Competitive
- IC50 [1]: 5.6 ± 1.1 µM
- inhibition at 100 µM [1]: 106 ± 3.4%
- activity toward the PTP1B enzyme [5]: significant activity

Compound: CCCC(=O)c1c(O)c(CC2=C(O)C(C)(C)C(O)=C(C(C)=O)C2=O)c(O)c(CC2=C(O)C(C)(C)C(O)=C(C(C)=O)C2=O)c1O [Compound 29, filixic acid ABA]
- IC50 [4]: 29.6 µM
- IC50 [1]: 90.5 ± 2.7 µM
- inhibition at 100 µM [1]: 53.4 ± 2.3%

Compound: CCCC(=O)c1c(O)c(CC2=C(O)C(C)(C)C(O)=C(C(C)=O)C2=O)c(O)c(Cc2c(O)c(CC3=C(O)C(C)(C)C(O)=C(C(C)=O)C3=O)c(O)c(C(=O)CCC)c2O)c1O [Compound 30, dryocrassin ABBA]
- IC50 [1]: 94.9 ± 2.5 µM
- inhibition at 100 µM [1]: 51.8 ± 2.7%

Compound: O=C(O)[C@@H](O)[C@H]1OC(=O)[C@H](O)[C@H]1O [DSA, D-saccharic acid 1,4-lactone, reference compound]
- IC50 [1]: 23.4 ± 1.5 µM
- inhibition at 100 µM [1]: 79 ± 0.3%
